Measurements reported in PubChem BioAssay (NCI).
Several values for one entry are separate records, joined by “and”; a condition that tells them apart may be missing. Equal values may be shown once.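 Results reflect a 48-hour exposure of cells in 96-well plates to compound at five concentrations. At the GI50, growth is halved. TGI is the concentration that stops growth completely.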

What was measured:
Assay in all cases: NCI-60 cell line screen, 48 h
SN12C renal = tested on: SN12C renal
ACHN renal = tested on: ACHN renal
A549 NSCLC = tested on: A549 NSCLC
SW-620 colon = tested on: SW-620 colon
EKVX NSCLC = tested on: EKVX NSCLC
NCI-H23 lung = tested on: NCI-H23 lung
SNB-19 CNS = tested on: SNB-19 CNS
NCI-H522 lung = tested on: NCI-H522 lung
RPMI-8226 leukemia = tested on: RPMI-8226 leukemia
BT-549 breast = tested on: BT-549 breast

Structure (SMILES) | TGI (SN12C renal) | TGI (ACHN renal) | TGI (A549 NSCLC) | TGI (SW-620 colon) | TGI (EKVX NSCLC) | TGI (NCI-H23 lung) | GI50 (SNB-19 CNS) | TGI (SNB-19 CNS) | GI50 (NCI-H522 lung) | TGI (NCI-H522 lung) | GI50 (RPMI-8226 leukemia) | TGI (RPMI-8226 leukemia) | GI50 (SN12C renal) | GI50 (ACHN renal) | GI50 (A549 NSCLC) | GI50 (SW-620 colon) | GI50 (EKVX NSCLC) | GI50 (BT-549 breast) | TGI (BT-549 breast) | GI50 (NCI-H23 lung)
Cc1ccc(/C=C2\CCCCC2=O)cc1 | > 100 µM | > 100 µM | > 100 µM | > 100 µM | > 100 µM | > 100 µM |  |  |  |  |  |  |  |  |  |  |  |  |  | 
Cc1c(C(=O)Nc2ccc(N3C[C@@H](C)O[C@@H](C)C3)nc2)cccc1-c1ccc(OC(F)(F)F)cc1 | 29.8 µM and 44.6 µM | 23.3 µM and 44.1 µM | 22.1 µM and 32.1 µM | > 88.4 µM and 93.3 µM | 28.4 µM and 34.2 µM | 25.5 µM and 40.4 µM | 7.85 µM and 21.3 µM | 32 µM and > 100 µM | 9.14 µM and 10.2 µM | 33.9 µM and 34.9 µM | 5.7 µM and 12 µM | > 100 µM | 10.8 µM and 14.1 µM | 5.6 µM and 14.4 µM | 4.91 µM and 6.91 µM | 10.6 µM and 13.9 µM | 5.73 µM and 4.55 µM | 10.4 µM and 15.1 µM | 40.7 µM and 43.9 µM | 5.98 µM and 12.4 µM
Cc1cc(I)cc(CN(C)CCCN2CCC(C)CC2)c1O | 93.4 µM | 30.7 µM | 29.6 µM | 26.6 µM | 31 µM | 33.7 µM | 16.4 µM | 34 µM | 16.4 µM | 32.2 µM | 12.6 µM | 32 µM | 24 µM | 16.3 µM | 15.4 µM | 13.6 µM | 14.2 µM | 11.2 µM | 23.8 µM | 15.4 µM
c1ccc2c(N=NSc3ncnc4nc[nH]c34)c3ccccc3nc2c1 | 12.8 µM | 7.03 µM | 3.89 µM |  | 12.8 µM | 5.76 µM | 1.36 µM | 13 µM | 1.35 µM | 3.36 µM | 2.42 µM | 6.82 µM | 0.811 µM | 0.609 µM | 0.648 µM |  | 2.61 µM | 2.76 µM | 8.7 µM | 1.7 µM
Clc1cnc(Nc2ccc(OCCN3CCCC3)cc2)nc1NCc1ccco1 | 10.6 µM | 26.4 µM | 16.3 µM | 13 µM | 6.47 µM | 5.75 µM | 3.51 µM | 13.5 µM | 1.75 µM | 3.96 µM | 2.25 µM | 5.49 µM | 2.42 µM | 2.37 µM | 2.56 µM | 2.26 µM | 2.1 µM | 2.29 µM | 7.47 µM | 1.84 µM
CN1CCN(Cc2ccc(NC(=O)c3cncc(C#Cc4ccc(N)nc4)c3)cc2C(F)(F)F)CC1 | 5.17 µM | 4.4 µM | 7.24 µM | 3.37 µM | 6.08 µM | 6.27 µM | 2.6 µM | 9.44 µM | 0.774 µM | 6.2 µM | 1.05 µM | 3.82 µM | 1.11 µM | 0.461 µM | 1.38 µM | 0.893 µM | 1.16 µM | 1.62 µM | 6.43 µM | 1.3 µM
Cc1ccsc1C(NC(=O)c1ccccc1)c1cc(Cl)c2cccnc2c1O (stereo not given) | 14.7 µM | 11.2 µM | 13.6 µM | 15 µM | 10.9 µM | 17.5 µM | 0.394 µM | 15.7 µM | 0.271 µM | 2.11 µM | 0.475 µM | 16.3 µM | 0.971 µM | 0.45 µM | 0.764 µM | 0.4 µM | 0.371 µM | 2.04 µM | 21.3 µM | 0.65 µM
CN1C(=O)N(C)C2C1NC(=S)N2/N=C/C=C/c1ccccc1[N+](=O)[O-] (stereo not given) | > 100 µM | > 100 µM | > 100 µM | > 100 µM | > 100 µM | > 100 µM | 0.952 µM | > 100 µM | 0.318 µM | 9.65 µM | 2.74 µM | > 100 µM | 6.82 µM | 0.988 µM | 2.15 µM | 0.596 µM | 3.86 µM | 3.34 µM | > 100 µM | 2.75 µM
CCC[CH2][Sn]1([CH2]CCC)[O]C(=O)c2cccc([N+](=O)[O-])c2C(=O)[O]1 | 2.15 µM | 1.27 µM | 3.59 µM | 0.54 µM |  | 1.19 µM | 1.2 µM | 2.51 µM | 0.0711 µM | 0.217 µM | 0.186 µM | 0.596 µM | 0.784 µM | 0.348 µM | 1.77 µM | 0.171 µM |  | 0.849 µM | 2.09 µM | 0.301 µM
O=[N+]([O-])c1ccc2c(c1)C(N1CCN(CCO)CC1)Cc1ccc(F)cc1S2 (stereo not given) | 28.9 µM | 16.7 µM | 26.3 µM | 19.3 µM | 24.1 µM | 29 µM |  | 24.6 µM |  | 18.3 µM |  |  |  |  |  |  |  |  | 23.1 µM | 
CC(C)N1CC2CC(CN(C(=O)c3ccc(Cl)cc3)C2)C1 | > 100 µM | > 100 µM | > 100 µM | > 100 µM | > 100 µM | > 100 µM |  | > 100 µM |  | > 100 µM |  | > 100 µM |  |  |  |  |  |  |  | 
C[C@]12CC[C@H]3[C@@H](CC[C@]4(O)C[C@@H](O)CC[C@]34C=O)[C@@]1(O)CC[C@@H]2C1=CC(=O)OC1 | 1.8 µM | 1.49 µM | 0.408 µM | 2.79 µM | 1.3 µM | 1.12 µM |  | 4.87 µM |  | 1.4 µM |  |  |  |  |  |  |  |  | 1.08 µM | 
CCCCCCCCCC1CC(=O)OC2=C1C(=O)CCC2 (stereo not given) | > 100 µM | > 100 µM | > 100 µM | > 100 µM | > 100 µM | > 100 µM |  | > 100 µM |  | > 100 µM |  | > 100 µM |  |  |  |  |  |  |  | 
COc1ccc(N=NC2=C(O)CCC2=O)cc1 | > 100 µM | > 100 µM | > 100 µM | > 100 µM | > 100 µM | > 100 µM |  | > 100 µM |  |  |  |  |  |  |  |  |  |  |  | 
CCCCCCC(=O)NC1=C(N2CC2)C(=O)C(NC(=O)CCCCCC)=C(N2CC2)C1=O |  | > 100 µM | > 100 µM | > 100 µM |  |  | 12.9 µM | > 100 µM |  |  |  |  |  | 2.76 µM | 2.79 µM | 2.25 µM |  | 31.3 µM | > 100 µM | 
